Patent US12565505B2, “mTORC modulators and uses thereof” (Aeovian Pharmaceuticals, Inc., priority 2019, dated 2026)

Assays:
mTORC2 = biological target: T1, mTORC2 (Homo sapiens, UniProt P42345+P62942); assay: Inhibition assay for mTORC2: phosphorylation of pAkt at Ser473, AlphaLISA SureFire in PC3 cells; type: cell-based; conditions: PC3 cells, 24 hours treatment, analogs substituted at C40 and C16 (C16 diastereomer mixtures not isolated); for IC50: read-out: pIC50 mTORC2 (converted)
T1 construct: endogenous in cells; host or cells: PC3 cells (human prostate adenocarcinoma)
Method: The IC50s of the inhibition of mTORC1 and mTORC2 were determined in vitro by determining the phosphorylation of pS6K at position Thr389 (mTORC1 inhibition) and pAkt at Ser473 (mTORC2 inhibition). In vitro studies were performed with AiphaLISA® technology using PC3 cells (Prostate Adenocarcinoma; Human (Homo sapiens)). The cells were seeded in 96 well plates and were treated for 24 hours with the different compounds. […] All analysis were performed using GraphPad Prism 7.0 (GraphPad Software, San Diego, USA). […]

mTORC1 = biological target: T2, mTORC1 (Homo sapiens, UniProt P42345+P62942); assay: Inhibition assay for mTORC1: phosphorylation of pS6K at Thr389, AlphaLISA SureFire in PC3 cells; type: cell-based; conditions: PC3 cells, 24 hours treatment, pS6K Thr389, analogs substituted at C40 and C16 (C16 diastereomer mixtures not isolated); for IC50: read-out: pIC50 mTORC1 (converted)
T2 construct: endogenous in cells; host or cells: PC3 cells (human prostate adenocarcinoma)
Method: The IC50s of the inhibition of mTORC1 and mTORC2 were determined in vitro by determining the phosphorylation of pS6K at position Thr389 (mTORC1 inhibition) and pAkt at Ser473 (mTORC2 inhibition). In vitro studies were performed with AiphaLISA® technology using PC3 cells (Prostate Adenocarcinoma; Human (Homo sapiens)). The cells were seeded in 96 well plates and were treated for 24 hours with the different compounds. […] All analysis were performed using GraphPad Prism 7.0 (GraphPad Software, San Diego, USA).
Tables 5-7 include PIC50 values for mTORC1 of selected compounds; with compounds having an PIC50 for mTORC1 of >9.5 as A, 8.5 to 9.5 as B, and less than 8.5 as C.

Row | Molecule | IC50 (mTORC2) [nM] | IC50 (mTORC1) [nM] | pIC50 mTORC2 (mTORC2) | pIC50 mTORC1 (mTORC1)
1 | COCCOC1C[C@@H]2CC[C@@H](C)[C@@](O)(O2)C(=O)C(=O)N2CCCCC2C(=O)O[C@H]([C@H](C)C[C@@H]2CC[C@@H](OCCOC)[C@H](OC)C2)CC(=O)[C@H](C)/C=C(\C)[C@@H](O)[C@@H](OC)C(=O)[C@H](C)C[C@H](C)/C=C/C=C/C=C/1C (stereo partly drawn) [Compound 29] | > 10000 | < 0.316 |  | 
2 | CO[C@@H]1C[C@H](C[C@@H](C)[C@@H]2CC(=O)[C@H](C)/C=C(\C)[C@@H](O)[C@@H](OC)C(=O)[C@H](C)C[C@H](C)/C=C/C=C/C=C(\C)C(OCCO)C[C@@H]3CC[C@@H](C)[C@@](O)(O3)C(=O)C(=O)N3CCCCC3C(=O)O2)CC[C@H]1OCCCN1CCOC(C)(C)C1 (stereo partly drawn) [Compound 12] | > 10000 | < 0.316 |  | 
3 | COCCCO[C@@H]1CC[C@@H](C[C@@H](C)[C@@H]2CC(=O)[C@H](C)/C=C(\C)[C@@H](O)[C@@H](OC)C(=O)[C@H](C)C[C@H](C)/C=C/C=C/C=C(\C)C(OCCOCCOC)C[C@@H]3CC[C@@H](C)[C@@](O)(O3)C(=O)C(=O)N3CCCCC3C(=O)O2)C[C@H]1OC (stereo partly drawn) [Compound 23] | > 10000 | < 0.316 |  | 
4 | COCCOC1C[C@@H]2CC[C@@H](C)[C@@](O)(O2)C(=O)C(=O)N2CCCCC2C(=O)O[C@H]([C@H](C)C[C@@H]2CC[C@@H](OCCN3CCCCC3)[C@H](OC)C2)CC(=O)[C@H](C)/C=C(\C)[C@@H](O)[C@@H](OC)C(=O)[C@H](C)C[C@H](C)/C=C/C=C/C=C/1C (stereo partly drawn) [Compound 51] | 1000 to 10000 | < 0.316 |  | 
5 | (1R,9S,12SR,15R,16E,18R,19R,21R,23S,24E,26E,28E,32SR,35R)-1,18-dihydroxy-30-(3-hydroxypropoxy)-19-methoxy-12-[(1R)-2-[(1S,3R,4R)-3-methoxy-4-(3-phenylpropoxy)cyclohexyl]-1-methyl-ethyl]-15,17,21,23,29,35-hexamethyl-11,36-dioxa-4-azatricyclo[30.3.1.0^4,9]hexatriaconta-16,24,26,28-tetraene-2,3,10,14,20-pentone [Compound 67] |  |  | A (PIC50 for mTORC2 of <5 as A) | B (8.5 to 9.5 as B)
6 | COCCCCOC1C[C@@H]2CC[C@@H](C)[C@@](O)(O2)C(=O)C(=O)N2CCCCC2C(=O)O[C@H]([C@H](C)C[C@@H]2CC[C@@H](OCCCO)[C@H](OC)C2)CC(=O)[C@H](C)/C=C(\C)[C@@H](O)[C@@H](OC)C(=O)[C@H](C)C[C@H](C)/C=C/C=C/C=C/1C (stereo partly drawn) [Compound 70, (1R,9S,12S,15R,16E,18R,19R,21R,23S,24E,26E,28E,32S,35R)-1,18-dihydroxy-12-[(1R)-2-[(1S,3R,4R)-4-(3-hydroxypropoxy)-3-methoxy-cyclohexyl]-1-methyl-ethyl]-19-methoxy-30-(4-methoxybutoxy)-15,17,21,23,29,35-hexamethyl-11,36-dioxa-4-azatricyclo[30.3.1.0^4,9]hexatriaconta-16,24,26,28-tetraene-2,3,10,14,20-pentone] | 1000 to 10000 | < 0.316 |  | 
7 | COCCOC1C[C@@H]2CC[C@@H](C)[C@@](O)(O2)C(=O)C(=O)N2CCCCC2C(=O)O[C@H]([C@H](C)C[C@@H]2CC[C@@H](OC(=O)NCCN3CCOCC3)[C@H](OC)C2)CC(=O)[C@H](C)/C=C(\C)[C@@H](O)[C@@H](OC)C(=O)[C@H](C)C[C@H](C)/C=C/C=C/C=C/1C (stereo partly drawn) [Compound 30] | 1000 to 10000 | < 0.316 |  | 
8 | CO[C@@H]1C[C@H](C[C@@H](C)[C@@H]2CC(=O)[C@H](C)/C=C(\C)[C@@H](O)[C@@H](OC)C(=O)[C@H](C)C[C@H](C)/C=C/C=C/C=C(\C)C(OCCO)C[C@@H]3CC[C@@H](C)[C@@](O)(O3)C(=O)C(=O)N3CCCC[C@H]3C(=O)O2)CC[C@H]1OCCCN1CCO[C@H](C)C1 (mixture of isomers) [Compound 13] | > 10000 |  |  | 
9 | CO[C@@H]1C[C@H](C[C@@H](C)[C@@H]2CC(=O)[C@H](C)/C=C(\C)[C@@H](O)[C@@H](OC)C(=O)[C@H](C)C[C@H](C)/C=C/C=C/C=C(\C)C(OCCO)C[C@@H]3CC[C@@H](C)[C@@](O)(O3)C(=O)C(=O)N3CCCCC3C(=O)O2)CC[C@H]1OCCCN1CCO[C@H](C)C1 (stereo partly drawn) [Compound 43] | 1000 to 10000 |  |  | 

The next lines start with the values.

Row | IC50 (mTORC2) [nM] | IC50 (mTORC1) [nM] | pIC50 mTORC2 (mTORC2) | pIC50 mTORC1 (mTORC1) | Molecule
10 | 1000 to 10000 | 0.316 to 3.16 |  |  | COCCOC1C[C@@H]2CC[C@@H](C)[C@@](O)(O2)C(=O)C(=O)N2CCCCC2C(=O)O[C@H]([C@H](C)C[C@@H]2CC[C@@H](OCCCN3CCC(O)CC3)[C@H](OC)C2)CC(=O)[C@H](C)/C=C(\C)[C@@H](O)[C@@H](OC)C(=O)[C@H](C)C[C@H](C)/C=C/C=C/C=C/1C (stereo partly drawn) [Compound 85]
11 | < 1000 | < 0.316 |  |  | CO[C@@H]1C[C@H](C[C@@H](C)[C@@H]2CC(=O)[C@H](C)/C=C(\C)[C@@H](O)[C@@H](OC)C(=O)[C@H](C)C[C@H](C)/C=C/C=C/C=C(\C)C(OCCc3ccccc3)C[C@@H]3CC[C@@H](C)[C@@](O)(O3)C(=O)C(=O)N3CCCCC3C(=O)O2)CC[C@H]1OC(=O)NCCn1cnnn1 (stereo partly drawn) [Compound 114]
12 | 1000 to 10000 | < 0.316 |  |  | CO[C@@H]1C[C@H](C[C@@H](C)[C@@H]2CC(=O)[C@H](C)/C=C(\C)[C@@H](O)[C@@H](OC)C(=O)[C@H](C)C[C@H](C)/C=C/C=C/C=C(\C)C(OCCc3ccccc3)C[C@@H]3CC[C@@H](C)[C@@](O)(O3)C(=O)C(=O)N3CCCCC3C(=O)O2)CC[C@H]1OCCCO (stereo partly drawn) [Compound 94, (1R,9S,12SR,15R,16E,18R,19R,21R,23S,24E,26E,28E,32S,35R)-1,18-dihydroxy-12-[(1R)-2-[(1S,3R,4R)-4-(3-hydroxypropoxy)-3-methoxy-cyclohexyl]-1-methyl-ethyl]-19-methoxy-15,17,21,23,29,35-hexamethyl-30-(2-phenylethoxy)-11,36-dioxa-4-azatricyclo[30.3.1.0^4,9]hexatriaconta-16,24,26,28-tetraene-2,3,10,14,20-pentone]
13 | 1000 to 10000 | < 0.316 |  |  | COCCOC1C[C@@H]2CC[C@@H](C)[C@@](O)(O2)C(=O)C(=O)N2CCCCC2C(=O)O[C@H]([C@H](C)C[C@@H]2CC[C@@H](OC[C@@H](O)CO)[C@H](OC)C2)CC(=O)[C@H](C)/C=C(\C)[C@@H](O)[C@@H](OC)C(=O)[C@H](C)C[C@H](C)/C=C/C=C/C=C/1C (stereo partly drawn) [Compound 58]
14 | 1000 to 10000 | 0.316 to 3.16 |  |  | CO[C@@H]1C[C@H](C[C@@H](C)[C@@H]2CC(=O)[C@H](C)/C=C(\C)[C@@H](O)[C@@H](OC)C(=O)[C@H](C)C[C@H](C)/C=C/C=C/C=C(\C)C(OCCO)C[C@@H]3CC[C@@H](C)[C@@](O)(O3)C(=O)C(=O)N3CCCCC3C(=O)O2)CC[C@H]1OC(=O)NCCN1CCOCC1 (stereo partly drawn) [Compound 82]
15 | 1000 to 10000 | < 0.316 |  |  | COCCOC1C[C@@H]2CC[C@@H](C)[C@@](O)(O2)C(=O)C(=O)N2CCCCC2C(=O)O[C@H]([C@H](C)C[C@@H]2CC[C@@H](OCCCN3C[C@@H](C)O[C@@H](C)C3)[C@H](OC)C2)CC(=O)[C@H](C)/C=C(\C)[C@@H](O)[C@@H](OC)C(=O)[C@H](C)C[C@H](C)/C=C/C=C/C=C/1C (stereo partly drawn) [Compound 59]
16 | 1000 to 10000 | 0.316 to 3.16 |  |  | CO[C@@H]1C[C@H](C[C@@H](C)[C@@H]2CC(=O)[C@H](C)/C=C(\C)[C@@H](O)[C@@H](OC)C(=O)[C@H](C)C[C@H](C)/C=C/C=C/C=C(\C)C(OCCO)C[C@@H]3CC[C@@H](C)[C@@](O)(O3)C(=O)C(=O)N3CCCCC3C(=O)O2)CC[C@H]1OCCCN1CCCCC1 (stereo partly drawn) [Compound 87, (1R,9S,12S,15R,16E,18R,19R,21R,23S,24E,26E,28E,32S,35R)-1,18-dihydroxy-30-(2-hydroxyethoxy)-19-methoxy-12-[(1R)-2-[(1S,3R,4R)-3-methoxy-4-[3-(1-piperidyl)propoxy]cyclohexyl]-1-methyl-ethyl]-15,17,21,23,29,35-hexamethyl-11,36-dioxa-4-azatricyclo[30.3.1.0^4,9]hexatriaconta-16,24,26,28-tetraene-2,3,10,14,20-pentone]
17 | > 10000 | 0.316 to 3.16 |  |  | CO[C@@H]1C[C@H](C[C@@H](C)[C@@H]2CC(=O)[C@H](C)/C=C(\C)[C@@H](O)[C@@H](OC)C(=O)[C@H](C)C[C@H](C)/C=C/C=C/C=C(\C)C(OC3COC3)C[C@@H]3CC[C@@H](C)[C@@](O)(O3)C(=O)C(=O)N3CCCCC3C(=O)O2)CC[C@H]1OC(=O)NCCN1CCOCC1 (stereo partly drawn) [Compound 71]
18 | 1000 to 10000 | < 0.316 |  |  | CO[C@@H]1C[C@H](C[C@@H](C)[C@@H]2CC(=O)[C@H](C)/C=C(\C)[C@@H](O)[C@@H](OC)C(=O)[C@H](C)C[C@H](C)/C=C/C=C/C=C(\C)C(OC[C@@H](O)c3ccccc3)C[C@@H]3CC[C@@H](C)[C@@](O)(O3)C(=O)C(=O)N3CCCCC3C(=O)O2)CC[C@H]1OCCCN1CCOCC1 (stereo partly drawn) [Compound 92]
19 | > 10000 | 0.316 to 3.16 |  |  | CO[C@@H]1C[C@H](C[C@@H](C)[C@@H]2CC(=O)[C@H](C)/C=C(\C)[C@@H](O)[C@@H](OC)C(=O)[C@H](C)C[C@H](C)/C=C/C=C/C=C(\C)C(OCCO)C[C@@H]3CC[C@@H](C)[C@@](O)(O3)C(=O)C(=O)N3CCCCC3C(=O)O2)CC[C@H]1OC(=O)NCCN1CCCCC1 (stereo partly drawn) [Compound 72]
